Reference: patent publication US20160084823A1, “METHODS AND KITS FOR TESTING THE GE[…] AN AGENT” (INSERM (INSTITUT NATIONAL DE LA SANTÉ ET DE LA RECHERCHE …, priority 2013, published 2016)

Tested on: p53 target genes (KIAA0284; PODXL1; RRAD; FHL2; TP53I3)
Experiment: p53 genotoxicity assay: RT-QMPSF of p53 target gene induction in EBV-immortalized human lymphocytes (wild type TP53 vs p.R175H)
Conditions: 0.3 μM doxorubicin; lymphocytes from a healthy control and from a Li-Fraumeni patient with p.R175H germline mutation; FIG. 2
Procedure: In the first version of this assay EBV-immortalized human lymphocytes derived from healthy blood donor with wild type TP53 or Li-Fraumeni patients harboring germline heterozygous TP53 mutations are cultured in 24 well plates, during 5 h, with or without the chemicals to test. RNA is then extracted using Nucleospin RNAII kit (Macherey Nagel). […] RT-QMPSF analysis using 5 TP53 target genes and 2 control amplicons are performed on cells treated or not with the chemicals and profiles were compared after normalization on controls amplicons.
In each case, the TP53 genotype of EBV-immortalized lymphocytes was checked by sequencing and QMPSF analyses. EBV-transformed lymphocytes were maintained in RPMI 1640 medium (GIBCO, Invitrogen), supplemented with 10% heat-inactivated fetal bovine serum (Invitrogen) at 37° C. with 5% CO2. […]
After treatment cells were centrifuged, lysed using RA1 reagent from Nucleospin RNAII (Macherey Nagel), RNA was extracted following the manufacturer's instructions and quantified using a ND-1000 UV-Vis Spectrophotometer (NanoDrop technologies). The integrity of the RNA was assessed with the Agilent 2100 Bioanalyzer (Agilent), according to the manufacturer's instructions. […]

SMILES: COc1cccc2c1C(=O)c1c(O)c3c(c(O)c1C2=O)C[C@@](O)(C(=O)CO)C[C@@H]3O[C@H]1C[C@H](N)[C@H](O)[C@H](C)O1 [doxorubicin]
- expression induction of p53 target genes (RT-QMPSF): showed clearly expression induction of 5 p53 target genes (KIAA0284; PODXL1; RRAD; FHL2; TP53I3) specifically in control lymphocytes
